These results are taken from patent US20170035793A1, “Use of P2X Purinergic Receptor Agonists to Enhance Insulin Secretion In Pancreatic Beta Cells” (priority 2010, published 2017).

“Also recorded” adds a separate entry of the source.

Holding throughout (assay type): cell-based
Experiment [1] deals with human islets. Briefly: Dynamic insulin secretion from perifused human islets kept at constant glucose. The settings on record: for insulin secretory response to the agonist at low glucose: 3 mM glucose, ATP 100 μM (or concentration series), ATPγS 50 μM, BzATP 50 μM, α,β-methylene ATP 50 μM, ADP 100 μM, UTP 100 μM, adenosine 100 μM; for effect on basal insulin secretion: low glucose (3 mM), ARL67156 50 μM, apyrase 5 U/mL. An excerpt:
(§1) Islet Isolation. Islets were isolated as previously described (57). Monkey islets were isolated from cynomolgus monkeys (Macacca fascicularis) >4 years of age at the time of pancreas procurement, as previously described (58). Pig pancreata were procured from the local slaughterhouse. Mice (C57BL/6) and rat (Lewis rat; Harlan) islets were isolated using a rodent-islet isolation technique (59). All animal protocols were approved by the University of Miami Care and Use Committee. Human pancreatic islets were obtained from the Human Islet Cell Processing Facility at the Diabetes Research Institute, University of Miami Miller School of Medicine or from the Islet Cell Resource basic science islet distribution program, Islet Cell Resource Centers (ICRs) Consortium, Division of Clinical Research, National Center for Research Resources, National Institutes of Health. Human islets were dissociated into single cells using enzyme-free cell dissociation buffer (Invitrogen). Islets and islets cells from Q:1 all species were cultured identically (37° C. and 5% CO2) inCMRL Q:2 medium-1066 (Invitrogen), niacinamide (10 mM; Sigma), ITS (BD Biosciences), Zn2SO4 (15 μM, Sigma), GlutaMAX (2 mM; Invitrogen), Hepes (25 mM; Sigma), FBS (10%; Invitrogen), and penicillinstreptomycin (100 IU/mL-100 μg/mL; Invitrogen).
(§2) Insulin and Glucagon Secretion. Insulin and glucagon secretion were measured as previously described (8, 36). A high-capacity automated perifusion system was developed to dynamically measure hormone secretion from pancreatic islets. A low pulsatility peristaltic pump pushed Hepes-buffered solution (125 mM NaCl, 5.9 mM KCl, 2.56 mM CaCl2, 1 mM MgCl2, 25 mM Hepes, and 0.1% BSA, pH 7.4 at a perifusion rate of 100 μL/min) through a column containing 100 pancreatic islets immobilized in Bio-Gel P-4 Gel (BioRad). Except when otherwise stated, glucose concentration was adjusted to 3 mM for all experiments. Stimuli were applied with the perifusion buffer. The perifusate was collected in an automatic fraction collector designed for a 96-well plate format. The columns containing the islets and the perifusion solutions were kept at 37° C., and the perifusate in the collecting plate was kept at <4° C. Perifusates were collected every 1 min. Hormone release in the perifusate was determined with the human or mouse Endocrine LINCOplex Kit following manufacturer's instructions (Lincoresearch). Human islet preparations varied considerably in their quality. Thus, the magnitudes of the responses to different stimuli were compared with the same recording or using recordings from the same preparation.

The subject of a further experiment is human alpha cells. The experiment in a line: [Ca2+]i imaging (Fura-2) of kainate-responsive human islet cells. To be noted: agonist 50 μM; for fraction of kainate-responsive cells that responded with rapid [Ca2+]i increases: human islet cells responding to kainate (100 μM).
Another experiment relates to human β cells. Briefly: [Ca2+]i imaging (Fura-2) of glucose-responsive human islet cells. The settings on record: for [Ca2+]i response of β cells to the agonist: human β cells identified by response to high glucose (11 or 16 mM), recorded at 3 mM glucose, BzATP 50 μM; for effect on [Ca2+]i responses induced by ATPγS: iso-PPADS, nifedipine 10 μM.
Excerpt: as §1
[Ca^2+]i; Imaging. [Ca^2+]i imaging was performed as previously described (8, 36). Dispersed islet cells were immersed in Hepes-buffered solution (125 mMNaCl, 5.9 mMKCl, 2.56 mMCaCl2, 1 mMMgCl2, 25 mMHepes, and 0.1% BSA, pH7.4). Glucose was added to give a final concentration of 3 mM. Islets or dispersed islet cells were incubated in Fura-2 AM (2 μM; 1 h) and placed in a closed small volume imaging chamber (Warner Instruments). Stimuli were applied with the bathing solution. Islets loaded with Fura-2 were excited alternatively at 340 and 380 nm with a monochromator light source (Cairn Research Optoscan Monochromator; Cairn Research Ltd). Images were acquired with a Hamamatsu camera (Hamamatsu) attached to a Zeiss Axiovert 200 microscope (Carl Zeiss). Changes in the 340/380 fluorescence emission ratio over time were analyzed in individual islets and dispersed cells using Kinetic Imaging AQM Advance software (Kinetic Imaging). Peak changes in the fluorescence ratio constituted the response amplitude. Beta cells were distinguished from other endocrine cells by their [Ca^2+]i, responses to high glucose concentrations, and alpha cells were identified by their [Ca^2+]i responses to kainate (glutamate receptor agonist) (8, 36).

Experiment [2] has as its system human islets. The experiment in a line: Glucose-induced insulin secretion (glucose raised from 3 mM to 11 mM) in perifused human islets. The settings on record: glucose 3 mM to 11 mM; for effect on glucose-induced insulin secretion: MRS2159 10 μM, Brilliant Blue G 1 μM, KN-62 1 μM, reactive blue 2 50 μM, MRS2179 10 μM, CGS15943 10 μM, adenosine 100 μM; for reduction of glucose-induced insulin release: apyrase 5 U/mL, suramin 50 μM or 100 μM, iso-PPADS 50 μM, oATP 500 μM.
Excerpt: as §1, §2

Experiment [3] concerns human islets. The experiment in a line: ATP-induced (or α,β meATP-induced) insulin secretion in human islets with antagonists or blockers. To be noted: ATP 10 μM; for effect on insulin secretion induced by ATP: suramin 100 μM, Cd2+ 100 μM, nifedipine 10 μM, thapsigargin 1 μM.
Excerpt: as §1, §2

The mark [4] stands for this setting: human β cells, ATPγS 50 μM, thapsigargin 1 μM.

Take 2′(3′)-O-(4-Benzoylbenzoyl)ATP [BzATP]: the “insulin secretory response to the agonist at low glucose” value (shortened to “insulin secretory response”) with human islets [1] is on record as “elicited insulin secretory responses; also recorded: elicited strong insulin responses”. The “fraction of kainate-responsive cells that responded with rapid [Ca2+]i increases” value in the experiment on human alpha cells amounted to 30%. Moreover, the “[Ca2+]i response of β cells to the agonist” value (shortened to “[Ca2+]i response of β cells”) in the experiment on human β cells (ATPγS 50 μM) is “rapid [Ca^2+]i increases; also recorded: elicited repeatable [Ca^2+]i responses”.
Consider `Nc1ncnc2c1ncn2[C@@H]1O[C@H](COP(=O)(O)OP(=O)(O)O)[C@@H](O)[C@H]1O` [ADP], for which the “insulin secretory response” value in the experiment with human islets [1] is on record as “elicited insulin secretory responses; also recorded: increase insulin release”.
As to `CCN(CC)c1ncnc2c1ncn2[C@@H]1O[C@H](COP(=O)(O)OP(=O)(O)C(Br)(Br)P(=O)(O)O)[C@@H](O)[C@H]1O` [ARL67156], the “effect on basal insulin secretion” value in the experiment on human islets [1] is given as “increased basal insulin secretion”. Also, the “effect on glucose-induced insulin secretion” value with human islets [2] was “did not amplify the β-cell response”.
Consider `Nc1ncnc2c1ncn2[C@@H]1O[C@H](COP(=O)(O)OP(=O)(O)OP(O)(O)=S)[C@@H](O)[C@H]1O` [ATPγS], for which the “insulin secretory response” value in the experiment on human islets [1] is recorded as “elicited insulin secretory responses; also recorded: elicited strong insulin responses”. Also, in the experiment with human alpha cells (human alpha cells identified by kainate (100 μM), 3 mM glucose), the “[Ca2+]i response of alpha cells to the agonist” value was “did not respond to ATP S”. For the same compound, in the experiment on human alpha cells, the “fraction of kainate-responsive cells that responded with rapid [Ca2+]i increases” value turned out to be 30%. Besides, the “[Ca2+]i response of β cells” value in the experiment with human β cells (ATPγS 50 μM) was “rapid [Ca^2+]i increases”; in the experiment with human β cells (ATPγS 50 μM, listed as ATP S), “induced [Ca^2+]i responses”. For the same compound, the “[Ca2+]i responses to the agonist in the nominal absence of extracellular Ca2+” value with human β cells (human β cells, nominal 0 Ca2+ (+1 mM EGTA), ATPγS 50 μM) is on record as “reduced”.
Take `CCOc1ccc(Nc2ccc(/C(=C3C=C/C(=[N+](/CC)Cc4cccc(S(=O)(=O)[O-])c4)C=C/3C)c3ccc(N(CC)Cc4cccc(S(=O)(=O)[O-])c4)cc3C)cc2)cc1.[Na+]` [Brilliant Blue G]: the “effect on glucose-induced insulin secretion” value with human islets [2] was “not significantly reduced”.
Consider `CN([C@@H](Cc1ccc(OS(=O)(=O)c2cccc3cnccc23)cc1)C(=O)N1CCN(c2ccccc2)CC1)S(=O)(=O)c1cccc2cnccc12` [KN-62], for which the “effect on glucose-induced insulin secretion” value in the experiment on human islets [2] is reported as “not significantly reduced”.
On the same count and under the same terms, for `Cc1nc(N=Nc2ccc(C(=O)O)cc2)c(COP(=O)(O)O)c(C=O)c1O` [MRS2159] the value was “not significantly reduced”; for `CNc1ncnc2c1ncn2[C@H]1C[C@H](OP(=O)(O)O)[C@@H](COP(=O)(O)O)O1` [MRS2179], “did not inhibit glucose induced insulin release”.
Regarding `O=c1ccn([C@@H]2O[C@H](COP(=O)(O)OP(=O)(O)OP(=O)(O)O)[C@@H](O)[C@H]2O)c(=O)[nH]1` [UTP], the “insulin secretory response” value in the experiment on human islets [1] is on record as “did not evoke strong insulin responses; also recorded: increase insulin release”.
In the case of `Nc1ncnc2c1ncn2[C@@H]1O[C@H](CO)[C@@H](O)[C@H]1O` [adenosine], the results for the “insulin secretory response” value with human islets [1] and with human islets [1] (listed as Adenosine) were “did not evoke strong insulin responses” and “minor effect on insulin release”, respectively. Moreover, in the experiment with human islets [2], the “effect on glucose-induced insulin secretion” value is “neither the P1 receptor antagonist CGS15943 (10 μM) nor adenosine (100 μM) altered glucose-induced insulin secretion”.
Consider `Cc1nc(/N=N/c2cc(S(=O)(=O)O)ccc2S(=O)(=O)O)c(COP(=O)(O)O)c(C=O)c1O` [iso-PPADS], for which, in the experiment with human islets [3] (iso-PPADS 50 μM, read-out: inhibition of insulin responses to ATP), the inhibition (as a rule, the drop in the measured response relative to a control, in per cent) at 50 µM is about 95%. Also, in the experiment with human islets [3] (iso-PPADS 50 μM), the “effect on insulin secretion induced by ATP” value is on record as “inhibited”. Moreover, in the experiment on human β cells (human β cells), the “block of [Ca2+]i responses to ATP” value is 80%. The “effect on [Ca2+]i responses induced by ATPγS” value in the experiment on human β cells (setting [4]) is “reduced [Ca^2+]i responses”. For the same compound, the “reduction of glucose-induced insulin release” value (shortened to “reduction”) with human islets [2] is 30%.
As to `Nc1ncnc2c1ncn2[C@@H](C=O)O[C@@H](C=O)COP(=O)(O)OP(=O)(O)OP(=O)(O)O` [oATP, oxidized ATP], in the experiment with human islets [2], the “reduction” value is given as 65%.
As to `Nc1c(S(=O)(=O)O)cc(Nc2ccc(Nc3nc(Cl)nc(Nc4cccc(S(=O)(=O)O)c4)n3)c(S(=O)(=O)O)c2)c2c1C(=O)c1ccccc1C2=O` [reactive blue 2], the “effect on glucose-induced insulin secretion” value in the experiment with human islets [2] is “did not inhibit glucose induced insulin release”.
For the compound `Cc1ccc(C(=O)Nc2ccc(S(=O)(=O)O)c3cc(S(=O)(=O)O)cc(S(=O)(=O)O)c23)cc1NC(=O)c1cccc(NC(=O)Nc2cccc(C(=O)Nc3cc(C(=O)Nc4ccc(S(=O)(=O)O)c5cc(S(=O)(=O)O)cc(S(=O)(=O)O)c45)ccc3C)c2)c1` [suramin], the “effect on insulin secretion induced by ATP” value in the experiment with human islets [3] (iso-PPADS 50 μM) is “inhibited”. Moreover, the “reduction” value with human islets [2] was determined as 40%.
Take `C/C=C(/C)C(=O)O[C@H]1C(C)=C2[C@H]([C@@H]1OC(=O)CCCCCCC)[C@@](C)(OC(C)=O)C[C@H](OC(=O)CCC)[C@@]1(O)[C@H]2OC(=O)[C@@]1(C)O` [thapsigargin]: the “effect on insulin secretion induced by ATP” value with human islets [3] (iso-PPADS 50 μM) was “had no effect on insulin responses to ATP”; in the experiment with human islets [3] (iso-PPADS 50 μM, listed as Thapsigargin) it was “did not affect insulin responses”. Moreover, in the experiment with human β cells (setting [4]), the “effect on [Ca2+]i responses induced by ATPγS” value is reported as “not decreased”. For the same compound, in the experiment with human β cells (human β cells, thapsigargin 1 μM, nifedipine), the “effect on [Ca2+]i responses to ATP” value was “did not affect [Ca^2+]i responses to ATP”.
Turning to `Nc1ncnc2c1ncn2[C@@H]1O[C@H](COP(=O)(O)CP(=O)(O)OP(=O)(O)O)[C@@H](O)[C@H]1O` [α,β-methylene ATP], in the experiment on human islets [3] (nominal 0 Ca2+ (+1 mM EGTA), α,β meATP 100 μM), the “insulin responses to the agonist in the nominal absence of extracellular Ca2+” value is listed as “strongly diminished”. Moreover, the “insulin secretory response” value with human islets [1] is recorded as “elicited strong insulin responses”. Besides, in the experiment with human β cells (ATPγS 50 μM), the “[Ca2+]i response of β cells” value is “elicited repeatable [Ca^2+]i responses”.
Consider adenosine deaminase, for which the “effect of degrading adenosine on the apyrase effect on glucose-stimulated insulin secretion” value with human islets [2] (ADA 1 U/mL added to apyrase 5 U/mL) is reported as “did not change the effect of apyrase on glucose-stimulated insulin secretion”.
In the case of apyrase, the figures for the “effect on basal insulin secretion” value with human islets [1] and with human islets [1] (listed as Apyrase) were “did not reduce basal insulin secretion” and “did not change basal insulin secretion”, respectively. Besides, the “reduction” value in the experiment with human islets [2] was about 15%.
